How the values were obtained:
[1] = molecular target: T1, CD73 on U138 human neuroglioma cells (Homo sapiens, UniProt P21589); assay: CD73 Cell-Based Assay; conditions: U138 cells, AMP substrate, 2 hours at 37° C., inorganic phosphate by malachite green
T1 construct: U138 cells were obtained from ATCC and cultured in DMEM with 10% FBS; host or cells: U138 human neuroglioma cells
T1 sequence (P21589 27-549): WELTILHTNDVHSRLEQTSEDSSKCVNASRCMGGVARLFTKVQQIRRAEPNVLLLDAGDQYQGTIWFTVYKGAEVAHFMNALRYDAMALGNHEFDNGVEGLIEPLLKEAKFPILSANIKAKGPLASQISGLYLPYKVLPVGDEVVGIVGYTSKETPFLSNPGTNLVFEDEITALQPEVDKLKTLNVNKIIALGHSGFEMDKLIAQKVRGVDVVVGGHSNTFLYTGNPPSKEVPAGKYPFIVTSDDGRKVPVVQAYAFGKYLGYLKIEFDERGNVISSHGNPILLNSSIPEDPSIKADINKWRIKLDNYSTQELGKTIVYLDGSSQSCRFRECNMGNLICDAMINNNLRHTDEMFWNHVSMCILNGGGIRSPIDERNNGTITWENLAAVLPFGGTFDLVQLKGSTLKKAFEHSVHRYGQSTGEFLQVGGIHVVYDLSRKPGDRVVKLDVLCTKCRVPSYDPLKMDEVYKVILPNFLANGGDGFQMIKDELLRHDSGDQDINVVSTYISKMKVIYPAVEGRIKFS
Method in brief: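 Whole U138 cells washed free of phosphate were incubated with 200 μM AMP (mixture concentration before equal-volume addition) plus compound in HEPES-buffered saline, pH 7.4, for 2 h at 37 °C, 5% CO2. Adenosine-forming activity read as inorganic phosphate released into supernatant by malachite green.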

Human CD73 = molecular target: T2, Human CD73 (Homo sapiens, UniProt P21589); assay: CD73 Enzyme Assay; type: biochemical; conditions: 0.25 nM hCD73, 25 μM AMP, kinetic read at 360 nm; read-out: CD73 Enzyme Assay IC50
T2 construct: purchased R&D Systems; host or cells: CHO cells
T2 sequence (P21589 27-549): T1 sequence (P21589 27-549)

In the case of `CC(C)(C)C(=O)OCOP(=O)(COC[C@H]1O[C@@H](n2ccc3c(NC4CCCC4)nc(Cl)nc32)[C@H](O)[C@@H]1O)OCOC(=O)C(C)(C)C` [Compound 187, [[(2R,3S,4R,5R)-5-[2-chloro-4-(cyclopentyl-amino)pyrrolo[2,3-d]-pyrimidin-7-yl]-3,4-dihydroxy-tetrahydro-furan-2-yl]methoxy-methyl-(2,2-dimethyl-propanoyloxymethoxy)-phosphoryl]oxymethyl 2,2-dimethylpropanoate], the IC50 [1] is reported as over 1000 nM and the IC50 (Human CD73) is reported as over 1000 nM.

`CC(C)(C)C(=O)OCOP(=O)(O)COC[C@H]1O[C@@H](n2ccc3c(NC4CCCC4)nc(Cl)nc32)[C@H](O)[C@@H]1O` [Compound 188, [(2R,3S,4R,5R)-5-[2-chloro-4-(cyclopentyl-amino)pyrrolo[2,3-d]-pyrimidin-7-yl]-3,4-dihydroxy-tetrahydro-furan-2-yl]methoxy-methyl-(2,2-dimethyl-propanoyloxymethoxy)-phosphinic acid] gave an IC50 [1] of 100 to 1000 nM and an IC50 (Human CD73) of under 10 nM.

`C[C@@H](Nc1nc(C#N)nc2c1ccn2[C@@H]1O[C@H](COCP(=O)(O)O)[C@@H](O)[C@H]1O)c1ccc(F)cc1F` [Compound 189, [(2R,3S,4R,5R)-5-[2-cyano-4-[[(1R)-1-(2,4-difluorophenyl)ethyl]-amino]pyrrolo[2,3-d]-pyrimidin-7-yl]-3,4-dihydroxy-tetrahydro-furan-2-yl]methoxy-methylphosphonic acid] was tested, and the IC50 [1] was under 10 nM and the IC50 (Human CD73) was under 10 nM.

In the case of `O=P(O)(O)COC[C@H]1O[C@@H](n2ccc3c(N4CCCC4)nc(Cl)nc32)[C@H](O)[C@@H]1O` [Compound 190, [(2R,3S,4R,5R)-5-(2-chloro-4-pyrrolidin-1-yl-pyrrolo[2,3-d]-pyrimidin-7-yl)-3,4-dihydroxy-tetrahydro-furan-2-yl]methoxy-methylphosphonic acid], the IC50 [1] is reported as under 10 nM and the IC50 (Human CD73) is reported as under 10 nM.

Work on `CN(c1nc(Cl)nc2c1ccn2[C@@H]1O[C@H](COCP(=O)(O)O)[C@@H](O)[C@H]1O)C1CCCC1` [Compound 192, [(2R,3S,4R,5R)-5-[2-chloro-4-[cyclopentyl-(methyl)amino]pyrrolo-[2,3-d]pyrimidin-7-yl]-3,4-dihydroxy-tetra-hydrofuran-2-yl]-methoxymethylphos-phonic acid] yielded an IC50 [1] of under 10 nM and an IC50 (Human CD73) of under 10 nM.

Work on `CC(C)OC(=O)OCOP(=O)(O)COC[C@H]1O[C@@H](n2ccc3c(NC4CCCC4)nc(Cl)nc32)[C@H](O)[C@@H]1O` [Compound 193, [(2R,3S,4R,5R)-5-[2-chloro-4-(cyclopentyl-amino)pyrrolo[2,3-d]-pyrimidin-7-yl]-3,4-dihydroxy-tetrahydro-furan-2-yl]methoxy-methyl-(isopropoxy-carbonyloxymethoxy)-phosphinic acid] yielded an IC50 [1] of 10 to 100 nM and an IC50 (Human CD73) of 10 to 100 nM.

With `CC(C)C(=O)OCOP(=O)(O)COC[C@H]1O[C@@H](n2ccc3c(NC4CCCC4)nc(Cl)nc32)[C@H](O)[C@@H]1O` [Compound 194, [(2R,3S,4R,5R)-5-[2-chloro-4-(cyclopentyl-amino)pyrrolo[2,3-d]-pyrimidin-7-yl]-3,4-dihydroxy-tetrahydro-furan-2-yl]methoxy-methyl-(2-methyl-propanoyloxymeth-oxy)phosphinic acid] the IC50 [1] was under 10 nM and the IC50 (Human CD73) was under 10 nM.

Molecule `CCN(c1nc(Cl)nc2c1ccn2[C@@H]1O[C@H](COCP(=O)(O)O)[C@@H](O)[C@H]1O)C1CCCC1` [Compound 195, [(2R,3S,4R,5R)-5-[2-chloro-4-[cyclopentyl-(ethyl)amino]pyrrolo-[2,3-d]pyrimidin-7-yl]-3,4-dihydroxy-tetra-hydrofuran-2-yl]-methoxymethylphos-phonic acid] has an IC50 [1] of under 10 nM and an IC50 (Human CD73) of under 10 nM.

`O=P(O)(O)COC[C@H]1O[C@@H](n2ccc3c(N(CC4CC4)C4CCCC4)nc(Cl)nc32)[C@H](O)[C@@H]1O` [Compound 196, [(2R,3S,4R,5R)-5-[2-chloro-4-[cyclopentyl-(cyclopropylmethyl)-amino]pyrrolo[2,3-d]-pyrimidin-7-yl]-3,4-dihydroxy-tetrahydro-furan-2-yl]methoxy-methylphosphonic acid] was tested, and the IC50 [1] was under 10 nM and the IC50 (Human CD73) was under 10 nM.

`C[C@@H](Nc1nc(Cl)nc2c1ccn2C1O[C@H](COCP(=O)(O)O)[C@@H](O)[C@H]1O)c1ccc(C2CC2)cc1` (stereo partly drawn) [Compound 197, [(2R,3S,4R,5R)-5-[2-chloro-4-[[(1R)-1-(4-cyclopropylphenyl)-ethyl]amino]pyrrolo-[2,3-d]pyrimidin-7-yl]-3,4-dihydroxy-tetra-hydrofuran-2-yl]-methoxymethylphos-phonic acid] gave an IC50 [1] of under 10 nM and an IC50 (Human CD73) of under 10 nM.

With `C[C@H](Nc1nc(Cl)nc2c1ccn2[C@@H]1O[C@H](COCP(=O)(O)O)[C@@H](O)[C@H]1O)c1ccc(C2CC2)cc1` [Compound 198, [(2R,3S,4R,5R)-5-[2-chloro-4-[[(1S)-1-(4-cyclopropylphenyl)-ethyl]amino]pyrrolo-[2,3-d]pyrimidin-7-yl]-3,4-dihydroxy-tetra-hydrofuran-2-yl]-methoxymethylphos-phonic acid] the IC50 [1] was under 10 nM and the IC50 (Human CD73) was under 10 nM.

Molecule `Cc1cn([C@@H]2O[C@H](COCP(=O)(O)O)[C@@H](O)[C@H]2O)c2nc(Cl)nc(NC3CCCC3)c12` [Compound 199, [(2R,3S,4R,5R)-5-[2-chloro-4-(cyclopentyl-amino)-5-methyl-pyrrolo[2,3-d]-pyrimidin-7-yl]-3,4-dihydroxy-tetrahydro-furan-2-yl]methoxy-methylphosphonic acid] has an IC50 [1] of over 1000 nM and an IC50 (Human CD73) of over 1000 nM.

For `Cc1cc2c(NC3CCCC3)nc(Cl)nc2n1[C@@H]1O[C@H](COCP(=O)(O)O)[C@@H](O)[C@H]1O` [Compound 200, [(2R,3S,4R,5R)-5-[2-chloro-4-(cyclopentyl-amino)-6-methyl-pyrrolo[2,3-d]-pyrimidin-7-yl]-3,4-dihydroxy-tetrahydro-furan-2-yl]methoxy-methylphosphonic acid], the IC50 [1] was 10 to 100 nM and the IC50 (Human CD73) was 10 to 100 nM.

`N#Cc1nc(N2CC3CCCC3C2)c2ccn([C@@H]3O[C@H](COCP(=O)(O)O)[C@@H](O)[C@H]3O)c2n1` (stereo partly drawn) [Compound 201, [(2R,3S,4R,5R)-5-[4-(3,3a,4,5,6,6a-hexa-hydro-1H-cyclopenta-[c]pyrrol-2-yl)-2-cyano-pyrrolo[2,3-d]-pyrimidin-7-yl]-3,4-dihydroxy-tetrahydro-furan-2-yl]methoxy-methylphosphonic acid] was tested, and the IC50 [1] was under 10 nM and the IC50 (Human CD73) was under 10 nM.

`COC(=O)OCOP(=O)(O)COC[C@H]1O[C@@H](n2ccc3c(NC4CCCC4)nc(Cl)nc32)[C@H](O)[C@@H]1O` [Compound 202, [(2R,3S,4R,5R)-5-[2-chloro-4-(cyclopentyl-amino)pyrrolo[2,3-d]-pyrimidin-7-yl]-3,4-dihydroxy-tetrahydro-furan-2-yl]methoxy-methyl-(methoxy-carbonyloxymethoxy)-phosphinic acid] gave an IC50 [1] of 10 to 100 nM and an IC50 (Human CD73) of 10 to 100 nM.

`CC(C)(C)C(=O)OCOP(=O)(COC[C@H]1O[C@@H](n2ccc3c(N4CC5CCCC5C4)nc(Cl)nc32)[C@H](O)[C@@H]1O)OCOC(=O)C(C)(C)C` (stereo partly drawn) [Compound 203, [[(2R,3S,4R,5R)-5-[4-(3,3a,4,5,6,6a-hexa-hydro-1H-cyclopenta-[c]pyrrol-2-yl)-2-chloro-pyrrolo[2,3-d]-pyrimidin-7-yl]-3,4-dihydroxy-tetrahydro-furan-2-yl]methoxy-methyl-(2,2-dimethyl-propanoyloxymethoxy)-phosphoryl]oxymethyl 2,2-dimethylpropanoate] gave an IC50 [1] of 10 to 100 nM and an IC50 (Human CD73) of 100 to 1000 nM.

From patent publication US11591355B2 (Peloton Therapeutics, Inc., priority 2017, dated 2023)
